Experiments:
[1] = system: U2OS osteosarcoma cells; assay: LC3-II (autophagosome) accumulation; assay type: cell-based; settings: Homo sapiens, within 4 to 8 hours, read-out: Accumulate LC3-II EC50
Experimental: (§1) The WX8-family of PIKfyve specific inhibitors disrupts multiple events in lysosome homeostasis (Table 1): • prevent lysosome fission without preventing homotypic lysosome fusion, thereby causing cytoplasmic vacuolization (enlarged lysosomes). Cytoplasmic vacuolization is evident within 30 minutes and reversible for up to 24-48 hours (1Vacuoles). • inhibit trafficking of molecules into lysosomes, thereby reducing lysosomal activity • inhibit maturation of lysosome cathepsins, thereby reducing lysosomal activity • disrupt endosome trafficking, thereby reducing cellular uptake of extracellular materials • inhibit cell proliferation (^3Proliferation) • disrupt autophagy by preventing heterotypic fusion of lysosomes with autophagosomes (^2LC3-II), thereby inducing cell death in autophagy-dependent cancer cells (^4Viability) under conditions where non-malignant cells remain viable.

[2] = system: U2OS osteosarcoma cells; assay: Reduction of cellular ATP levels (viability); assay type: cell-based; settings: Homo sapiens, 96 h, within 4 days, read-out: Inhibit Viability IC50 (cellular ATP levels)
Experimental: as §1

[3] = system: U2OS osteosarcoma cells; assay: Suppression of cell proliferation; assay type: cell-based; settings: Homo sapiens, 72 h, within 3 days, read-out: Inhibit Proliferation IC50
Experimental: as §1

[4] = system: U2OS osteosarcoma cells; assay: Induction of vacuoles (enlarged lysosomes); assay type: cell-based; settings: within 4 hours
Experimental: as §1

[5] = system: SARS-CoV-2
[6] = system: Vero E6 cells; assay type: cell-based, African Green monkey
[7] = in vitro; settings: African green monkey
[8] = system: SARS-CoV-2; assay: microbe, parasite or virus in culture; settings: Severe acute respiratory syndrome coronavirus 2, Vero C1008, read-out: IC50 inhibition of SARS-CoV-2 infection
[9] = biological target: PIKfyve (Homo sapiens, UniProt Q9Y2I7); assay: biochemical
Experimental: (§4) Each kinase was tagged with a unique DNA sequence that allowed the amount of protein bound to the solid support to be quantified by PCR. The mean equilibrium dissociation constant (Kd) for each compound was then determined for the top three hits (PIKFYVE, PIP4K2C and MTOR) from two independent titration curves. A dissociation constant (Kd) was calculated by measuring the amount of kinase captured on the solid support as a function of the test compound concentration (nM) on a log10 scale. Mean Kd values (±range) are given for each WX8-family member. The ratios of PIP4K2C/PIKfyve and mTOR/PIKfyve indicate the relative specificity of each compound for PIKfyve.

[10] = system: 'autophagy-addicted' human melanoma cells; assay type: cell-based
[11] = system: Vero E6 cells; assay: Vero E6 cell death, annexin-V / propidium iodide FACS; assay type: cell-based, African Green monkey; settings: Chlorocebus sabaeus, Vero C1008, 72 h; 3 days, annexin-V and propidium iodide staining; read-out: IC50 Vero E6 cell death (fraction of live cells)
Experimental: (§2) FIG. 4. […] Vero E6 cells were plated at low density and then cultured overnight before adding WX8 at the concentrations indicated and then cultured for 3 days. (A) Attached cells were collected by trypsinization and counted. The fraction of cells (%) as well as the change in the total number of cells (fold change) relative to cells cultured in the presence of the WX8 vehicle control are given. (B) Attached and unattached cells were combined and stained with annexin-V to identify cells undergoing apoptosis and propidium iodide (PI) to identify dead cells that were permeable to a nuclear DNA stain. The cells were then analyzed by fluorescence activated cell sorting. Quadrant (Q) Q3 contained the unstained (live) cells. Q1 contained cells stained only with annexin-V (early apoptosis). Q2 contained cells stained with both annexin-V and PI (apoptotic dead cells). Q4 contained cells stained only with PI (necrotic dead cells). (C) Data were normalized to the fraction of live cells. Error bars indicate ±SEM. (D) Cells were first permeabilized, stained with PI and then analyzed by fluorescence activated cell sorting in order to quantify the fraction of cells with <2N DNA content. (E) The fraction of cells with <2N DNA content ±SEM.
(§3) WX8 inhibited Vero E6 cell proliferation with an IC50 of 0.4 μM (FIG. 4A). However, 100-fold higher concentrations of WX8 were required to induce cell death. […]

[12] = system: Vero E6 cells; assay: Vero E6 loss of cellular DNA (PI FACS); assay type: cell-based, African Green monkey; settings: Chlorocebus sabaeus, Vero C1008, 72 h, read-out: IP50 for loss of cellular DNA
Experimental: as §2, §3

[13] = system: Vero E6 cells; assay: Vero E6 cell proliferation (attached cell count); assay type: cell-based, African Green monkey; settings: Chlorocebus sabaeus, Vero C1008, 72 h; cultured for 3 days
Experimental: as §2, §3

[14] = biological target: T1, PIP4K2C (Homo sapiens, UniProt Q8TBX8); settings: ratio of Kd values
T1 sequence (Q8TBX8 1-421): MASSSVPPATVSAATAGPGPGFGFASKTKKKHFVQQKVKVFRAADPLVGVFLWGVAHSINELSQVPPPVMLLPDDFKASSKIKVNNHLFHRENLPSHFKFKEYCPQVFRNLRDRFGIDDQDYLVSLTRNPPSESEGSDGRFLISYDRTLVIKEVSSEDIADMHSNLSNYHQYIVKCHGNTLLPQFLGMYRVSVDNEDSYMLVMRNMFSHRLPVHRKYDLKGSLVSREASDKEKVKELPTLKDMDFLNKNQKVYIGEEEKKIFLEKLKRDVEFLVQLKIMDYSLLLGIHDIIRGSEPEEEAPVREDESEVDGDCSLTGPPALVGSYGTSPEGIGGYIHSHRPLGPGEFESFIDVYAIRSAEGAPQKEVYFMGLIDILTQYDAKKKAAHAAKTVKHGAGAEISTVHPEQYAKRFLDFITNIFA
Experimental: as §4

PIKfyve, sequence (Q9Y2I7 whole entry): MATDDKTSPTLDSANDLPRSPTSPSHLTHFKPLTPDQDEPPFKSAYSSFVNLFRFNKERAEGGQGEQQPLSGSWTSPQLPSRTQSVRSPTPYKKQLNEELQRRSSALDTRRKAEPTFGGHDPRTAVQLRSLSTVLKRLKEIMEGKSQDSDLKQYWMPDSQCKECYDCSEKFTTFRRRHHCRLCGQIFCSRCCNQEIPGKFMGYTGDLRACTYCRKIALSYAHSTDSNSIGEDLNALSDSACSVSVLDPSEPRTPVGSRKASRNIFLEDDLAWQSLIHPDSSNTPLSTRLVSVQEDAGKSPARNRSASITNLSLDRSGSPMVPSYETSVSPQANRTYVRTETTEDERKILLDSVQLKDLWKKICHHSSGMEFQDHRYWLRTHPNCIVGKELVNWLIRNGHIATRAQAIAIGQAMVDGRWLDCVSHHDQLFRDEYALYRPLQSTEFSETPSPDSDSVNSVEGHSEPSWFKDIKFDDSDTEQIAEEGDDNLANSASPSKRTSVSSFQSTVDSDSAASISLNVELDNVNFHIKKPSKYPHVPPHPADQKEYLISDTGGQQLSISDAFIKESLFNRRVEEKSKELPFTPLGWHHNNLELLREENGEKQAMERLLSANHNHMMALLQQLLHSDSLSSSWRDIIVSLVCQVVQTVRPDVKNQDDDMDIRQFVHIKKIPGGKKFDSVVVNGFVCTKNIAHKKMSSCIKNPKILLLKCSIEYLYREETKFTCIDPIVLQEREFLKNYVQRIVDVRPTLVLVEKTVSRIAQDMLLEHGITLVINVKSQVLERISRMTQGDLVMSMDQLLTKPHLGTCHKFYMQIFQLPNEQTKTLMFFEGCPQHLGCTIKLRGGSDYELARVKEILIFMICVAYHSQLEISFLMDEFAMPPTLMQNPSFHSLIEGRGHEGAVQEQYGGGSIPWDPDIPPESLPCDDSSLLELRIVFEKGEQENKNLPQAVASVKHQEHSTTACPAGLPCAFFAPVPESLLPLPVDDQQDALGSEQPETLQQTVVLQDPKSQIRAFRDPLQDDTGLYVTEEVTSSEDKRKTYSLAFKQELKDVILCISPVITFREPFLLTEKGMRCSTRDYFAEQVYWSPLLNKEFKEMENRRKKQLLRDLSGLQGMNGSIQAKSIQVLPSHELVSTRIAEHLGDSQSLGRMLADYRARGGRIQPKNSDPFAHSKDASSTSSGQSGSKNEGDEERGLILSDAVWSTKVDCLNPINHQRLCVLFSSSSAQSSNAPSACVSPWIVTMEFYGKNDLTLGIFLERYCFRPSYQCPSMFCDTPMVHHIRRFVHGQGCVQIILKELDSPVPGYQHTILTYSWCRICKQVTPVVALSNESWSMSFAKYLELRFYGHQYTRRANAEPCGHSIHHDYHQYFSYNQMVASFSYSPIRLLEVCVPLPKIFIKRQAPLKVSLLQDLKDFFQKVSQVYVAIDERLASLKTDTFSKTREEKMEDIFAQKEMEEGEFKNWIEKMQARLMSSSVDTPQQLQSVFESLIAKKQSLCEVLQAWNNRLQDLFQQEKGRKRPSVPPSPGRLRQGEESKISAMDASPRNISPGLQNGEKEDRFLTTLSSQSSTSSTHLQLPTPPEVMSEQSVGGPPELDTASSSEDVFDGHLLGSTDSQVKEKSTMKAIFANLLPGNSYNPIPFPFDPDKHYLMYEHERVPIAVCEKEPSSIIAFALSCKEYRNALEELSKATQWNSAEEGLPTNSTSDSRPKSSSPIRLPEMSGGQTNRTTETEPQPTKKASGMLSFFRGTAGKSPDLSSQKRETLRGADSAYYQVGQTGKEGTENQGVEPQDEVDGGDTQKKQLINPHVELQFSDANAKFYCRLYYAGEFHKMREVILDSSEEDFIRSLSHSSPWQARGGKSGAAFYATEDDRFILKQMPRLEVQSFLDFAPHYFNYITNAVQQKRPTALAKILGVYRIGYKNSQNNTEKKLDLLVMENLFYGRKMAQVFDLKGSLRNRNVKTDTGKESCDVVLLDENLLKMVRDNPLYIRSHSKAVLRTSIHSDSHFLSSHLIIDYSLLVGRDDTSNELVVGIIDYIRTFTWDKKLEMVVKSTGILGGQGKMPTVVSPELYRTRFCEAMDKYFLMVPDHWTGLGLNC

## Fc1ccc(Nc2nc(N3CCOCC3)nc(N3CCOCC3)n2)cc1Cl [XBA]
[1]
  EC50: 7500 nM
[2]
  IC50: > 10000 nM
[3]
  IC50: 4000 nM
[4]
  Accumulate Vacuoles EC: 4 µM

## C(=N\Nc1cc(N2CCOCC2)nc(N2CCOCC2)n1)/c1ccccc1 [WWL]
[5]
  CC50/IC50: 16
[6]
  accumulation of cytoplasmic vacuoles: rapidly accumulated cytoplasmic vacuoles
[7]
  CC50: 40300 nM
[1]
  EC50: 6500 nM
[8]
  IC50: 2440 nM
[2]
  IC50: 2600 nM
[3]
  IC50: 1600 nM
[4]
  Accumulate Vacuoles EC: 0.2 µM

## Cc1cccc(/C=N/Nc2cc(N3CCOCC3)nc(OCCc3ccccn3)n2)c1 [Apilimod, reference compound]
[5]
  CC50/IC50: 22,027
[6]
  accumulation of cytoplasmic vacuoles: rapidly accumulated cytoplasmic vacuoles
[7]
  CC50: 33000 nM
[8]
  IC50: 1.5 nM

## CCc1ccc(Nc2nc(N3CCOCC3)nc(N3CCOCC3)n2)cc1 [XB6]
[1]
  EC50: > 10000 nM
[2]
  IC50: 5300 nM
[3]
  IC50: 7400 nM
[4]
  Accumulate Vacuoles EC: 2 µM

## Cc1cccc(/C=N/Nc2cc(N3CCOCC3)nc(N3CCOCC3)n2)c1 [NDF]
[5]
  CC50/IC50: 52
[6]
  accumulation of cytoplasmic vacuoles: rapidly accumulated cytoplasmic vacuoles
[7]
  CC50: 26300 nM
[1]
  EC50: 1500 nM
[8]
  IC50: 499 nM
[2]
  IC50: 420 nM
[3]
  IC50: 1100 nM
[4]
  Accumulate Vacuoles EC: 0.1 µM

## C1=Nc2ccccc2/C1=C/NNc1nc(Nc2ccccc2)nc(N2CCOCC2)n1 [WX8]
[9]
  Kd: < 1 nM
[5]
  CC50/IC50: 245
[10]
  lethality relative to chloroquine: 100 times
[6]
  accumulation of cytoplasmic vacuoles: rapidly accumulated cytoplasmic vacuoles
[11]
  IC50: 70000 nM
[7]
  CC50: 42300 nM
[12]
  IC50: 60000 nM
[13]
  IC50: 400 nM
[1]
  EC50: 300 nM
[8]
  IC50: 172 nM
[14]
  affinity for PIKfyve relative to PIP4K2C (PIP4K2C/PIKfyve): 366 fold
[2]
  IC50: 350 nM
[3]
  IC50: 200 nM
[4]
  Accumulate Vacuoles EC: 0.01 µM

Reference: patent publication US20250268904A1 (priority 2020, published 2025)
